# Measured values as given in US6642020B2, “Process for preparing cephalosporin derivatives” (Bioferma Murcia S.A., priority 2001, dated 2003).
# Experiment: Stability of cephalosporin C solution without thiol on heating
# Assay type: physicochemical
# Details: aqueous cephalosporin C solution without the thiol, 80° C.
structure (smiles),measurement,value
"CC(=O)OCC1=C(C(=O)O)N2C(=O)C(NC(=O)CCC[C@@H](N)C(=O)O)[C@H]2SC1 (stereo partly drawn) [cephalosporin C, 3-acetoxymethyl-7-(D-5-amino-5-carboxypentan amido)-ceph-3-em-4-carboxylic acid]",time to complete degradation (β-lactam ring degradation),≤ 40 min
